Results published in PMC3388095, “Fluorophore Labeled Kinase Detects Ligands That Bind within the MAPK Insert of p38α Kinase” (PLoS ONE, 2012).

How the values were obtained:
Experiment in all cases: Kinase selectivity profile, 33P-ATP filter-binding assay
Assay type in all cases: biochemical
p38δ MAPK = p38δ MAPK (Homo sapiens, UniProt O15264)
Method: (§1) Figure 5 Kinase selectivity profile of 1b. Compound 1b was profiled against a selected panel of 95 different kinases at a concentration of 10 µM employing a radioactive (^33P-ATP) filter-binding assay (National Centre for Protein Kinase Profiling, Dundee). The numbers represent the remaining kinase activity in %. […] TEXT PRINTED IN THE PICTURE: no label printed: Aurora B: 53; MNK2: 67; MINK1: 69; HER4: 71; MKK1: 75; PKBβ: 75; PHK: 76; PIM2: 76; PIM3: 77; CHK2: 78; PKD1: 79; TBK1: 79; PAK4: 80; Lck: 80; GSK3β: 80; IGF-1R: 81; p38δ MAPK: 81; PIM1: 82; SRPK1: 83; SmMLCK: 83; MAPKAP-K3: 84; EPH A2: 85; MELK: 85; CK2: 85; CK1: 86; CAMK1: 86; PLK1: 87; MST2: 87; IR-HIS: 87; BTK: 87; HIPK1: 87; p38α MAPK: 88; DYRK2: 88; JNK3: 88; PAK5: 88; IKKε: 89; p38β MAPK: 89; NUAK1: 90; PAK2: 90; MNK1: 91; ERK8: 91; GCK: 91; PRAK: 91; MLK1: 92; SGK1: 92; PAK6: 92; TTK: 92; BRSK2: 92; MARK4: 93; CHK1: 93; RIPK2: 94; CDK2-Cyclin A: 94; JNK1: 94; AMPK: 94; VEG-FR: 95; DYRK1A: 95; CAMKKβ: 95; PKCα: 96; S6K1: 96; MSK1: 96; PKCz: 96; YES1: 96; RSK1: 97; IRAK4: 97; DYRK3: 97; IKKβ: 97; ERK2: 98; MLK3: 98; RSK2: 98; LKB1: 98; MAPKAP-K2: 98; ERK1: 99; FGF-R1: 99; SYK: 99; MST4: 99; MARK3: 99; MARK2: 100; PDK1: 100; JNK2: 101; HIPK2: 101; BRSK1: 102; EF2K: 102; PRK2: 103; Aurora A: 104; IRR: 104; CSK: 104; PKA: 104; NEK6: 105; p38γ MAPK: 105; Src: 107; PKBα: 109; ROCK 2: 109; EPH-B3: 112; HIPK3: 115; NEK2α: 119 DOUBTS OF THE COPYIST ABOUT THIS PICTURE: The picture prints no compound label and no measure or unit for the numbers; only the colour scale 'Inhibition weak/strong' is printed. / PKCz: the last letter may be z or ζ / NEK2α: the last letter may be a or α / IKKε: the last letter may be ε or e

CHK1 = CHK1 (Homo sapiens, UniProt O14757)
Method: as §1

EPH-B3 = EPH-B3 (Homo sapiens, UniProt P54753)
Method: as §1

SRPK1 = SRPK1 (Homo sapiens, UniProt Q96SB4)
Method: as §1

DYRK3 = DYRK3 (Homo sapiens, UniProt O43781)
Method: as §1

PAK2 = PAK2 (Homo sapiens, UniProt Q13177)
Method: as §1

MST4 = MST4 (Homo sapiens, UniProt Q9P289)
Method: as §1

PKCz = PKCz (Homo sapiens, UniProt Q05513)
Method: as §1

PIM3 = PIM3 (Homo sapiens, UniProt Q86V86)
Method: as §1

SGK1 = SGK1 (Homo sapiens, UniProt O00141)
Method: as §1

IRAK4 = IRAK4 (Homo sapiens, UniProt Q9NWZ3)
Method: as §1

IRR = IRR (Homo sapiens, UniProt P14616)
Method: as §1

MAPKAP-K3 = MAPKAP-K3 (Homo sapiens, UniProt Q16644)
Method: as §1

ERK1 = ERK1 (Homo sapiens, UniProt P27361)
Method: as §1

CHK2 = CHK2 (Homo sapiens, UniProt O96017)
Method: as §1

MST2 = MST2 (Homo sapiens, UniProt Q13188)
Method: as §1

PAK4 = PAK4 (Homo sapiens, UniProt O96013)
Method: as §1

EF2K = EF2K (Homo sapiens, UniProt O00418)
Method: as §1

CK2 = CK2 (Homo sapiens, UniProt P68400)
Method: as §1

IR-HIS = IR-HIS (Homo sapiens, UniProt P06213)
Method: as §1

GCK = GCK (Homo sapiens, UniProt Q12851)
Method: as §1

p38β MAPK = p38β MAPK (Homo sapiens, UniProt Q15759)
Method: as §1

PIM1 = PIM1 (Homo sapiens, UniProt P11309)
Method: as §1

DYRK2 = DYRK2 (Homo sapiens, UniProt Q92630)
Method: as §1

MLK1 = MLK1 (Homo sapiens, UniProt P80192)
Method: as §1

PLK1 = PLK1 (Homo sapiens, UniProt P53350)
Method: as §1

CAMKKβ = CAMKKβ (Homo sapiens, UniProt Q96RR4)
Method: as §1

Sequence of PKCz (Q05513 whole entry): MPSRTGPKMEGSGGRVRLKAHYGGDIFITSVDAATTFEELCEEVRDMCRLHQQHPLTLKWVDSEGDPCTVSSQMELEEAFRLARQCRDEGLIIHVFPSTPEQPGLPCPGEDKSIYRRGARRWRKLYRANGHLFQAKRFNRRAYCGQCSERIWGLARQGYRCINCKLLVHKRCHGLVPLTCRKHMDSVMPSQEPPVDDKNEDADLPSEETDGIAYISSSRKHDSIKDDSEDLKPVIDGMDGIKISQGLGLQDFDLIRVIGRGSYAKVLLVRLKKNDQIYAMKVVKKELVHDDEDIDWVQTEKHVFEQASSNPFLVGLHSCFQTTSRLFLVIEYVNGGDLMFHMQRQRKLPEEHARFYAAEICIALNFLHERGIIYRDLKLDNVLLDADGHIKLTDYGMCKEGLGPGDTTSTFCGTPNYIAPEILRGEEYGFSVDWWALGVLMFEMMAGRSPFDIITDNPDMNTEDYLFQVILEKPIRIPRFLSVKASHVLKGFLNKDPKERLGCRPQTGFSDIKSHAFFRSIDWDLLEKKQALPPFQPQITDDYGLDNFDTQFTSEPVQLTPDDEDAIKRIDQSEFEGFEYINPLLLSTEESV
Sequence of CAMKKβ (Q96RR4 whole entry): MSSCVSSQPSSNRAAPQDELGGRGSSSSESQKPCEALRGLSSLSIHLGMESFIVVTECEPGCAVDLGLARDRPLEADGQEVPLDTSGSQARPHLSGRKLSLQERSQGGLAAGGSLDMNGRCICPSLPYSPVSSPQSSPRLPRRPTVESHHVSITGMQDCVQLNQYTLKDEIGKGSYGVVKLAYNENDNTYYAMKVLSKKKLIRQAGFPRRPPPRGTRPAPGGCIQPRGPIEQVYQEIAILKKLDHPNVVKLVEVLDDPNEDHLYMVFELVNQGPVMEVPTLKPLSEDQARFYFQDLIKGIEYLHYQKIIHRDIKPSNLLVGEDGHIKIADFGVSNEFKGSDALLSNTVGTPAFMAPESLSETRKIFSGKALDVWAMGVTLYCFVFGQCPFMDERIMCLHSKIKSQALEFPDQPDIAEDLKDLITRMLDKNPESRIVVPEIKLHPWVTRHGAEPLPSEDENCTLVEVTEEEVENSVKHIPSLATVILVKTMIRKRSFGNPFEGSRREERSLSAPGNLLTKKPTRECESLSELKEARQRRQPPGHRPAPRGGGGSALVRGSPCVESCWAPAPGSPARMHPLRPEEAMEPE
Sequence of ERK1 (P27361 whole entry): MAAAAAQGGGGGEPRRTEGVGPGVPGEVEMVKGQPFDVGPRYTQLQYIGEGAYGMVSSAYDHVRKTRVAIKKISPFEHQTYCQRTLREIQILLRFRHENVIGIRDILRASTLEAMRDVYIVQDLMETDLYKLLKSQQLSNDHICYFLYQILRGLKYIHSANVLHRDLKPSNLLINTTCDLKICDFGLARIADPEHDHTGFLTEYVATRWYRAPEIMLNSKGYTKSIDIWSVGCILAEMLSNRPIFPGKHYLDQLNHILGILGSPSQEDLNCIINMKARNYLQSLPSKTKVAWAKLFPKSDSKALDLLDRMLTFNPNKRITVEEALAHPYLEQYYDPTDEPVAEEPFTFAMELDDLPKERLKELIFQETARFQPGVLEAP
Sequence of CHK2 (O96017 whole entry): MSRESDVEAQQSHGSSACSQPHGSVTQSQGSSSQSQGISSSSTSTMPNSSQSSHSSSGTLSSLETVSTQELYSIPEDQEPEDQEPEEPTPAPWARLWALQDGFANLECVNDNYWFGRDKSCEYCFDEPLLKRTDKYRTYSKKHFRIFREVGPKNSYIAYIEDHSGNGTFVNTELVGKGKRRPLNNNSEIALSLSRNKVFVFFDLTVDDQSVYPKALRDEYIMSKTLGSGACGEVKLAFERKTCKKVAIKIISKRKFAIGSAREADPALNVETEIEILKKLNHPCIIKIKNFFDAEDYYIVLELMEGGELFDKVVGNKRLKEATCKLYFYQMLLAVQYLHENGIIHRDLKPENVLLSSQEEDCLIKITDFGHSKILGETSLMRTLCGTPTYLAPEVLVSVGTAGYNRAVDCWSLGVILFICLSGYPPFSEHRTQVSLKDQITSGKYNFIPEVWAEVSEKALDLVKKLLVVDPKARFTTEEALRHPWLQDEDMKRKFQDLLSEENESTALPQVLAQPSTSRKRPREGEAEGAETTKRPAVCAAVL
Sequence of DYRK3 (O43781 whole entry): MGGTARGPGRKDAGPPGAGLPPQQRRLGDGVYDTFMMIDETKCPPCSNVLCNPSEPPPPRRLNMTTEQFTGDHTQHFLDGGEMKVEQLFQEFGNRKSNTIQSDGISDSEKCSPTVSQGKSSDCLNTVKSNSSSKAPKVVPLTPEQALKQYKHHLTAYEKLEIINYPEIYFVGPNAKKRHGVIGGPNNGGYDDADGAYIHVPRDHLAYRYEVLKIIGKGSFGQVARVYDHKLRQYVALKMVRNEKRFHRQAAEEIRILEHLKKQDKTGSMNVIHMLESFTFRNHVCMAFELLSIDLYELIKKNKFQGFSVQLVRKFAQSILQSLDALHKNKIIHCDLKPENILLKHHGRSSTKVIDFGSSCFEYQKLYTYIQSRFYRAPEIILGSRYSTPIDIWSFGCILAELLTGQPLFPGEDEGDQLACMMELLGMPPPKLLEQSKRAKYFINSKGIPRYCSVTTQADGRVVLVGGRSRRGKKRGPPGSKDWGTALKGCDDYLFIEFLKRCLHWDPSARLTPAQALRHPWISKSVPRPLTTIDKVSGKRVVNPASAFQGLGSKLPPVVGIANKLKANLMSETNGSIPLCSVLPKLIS
Sequence of MAPKAP-K3 (Q16644 whole entry): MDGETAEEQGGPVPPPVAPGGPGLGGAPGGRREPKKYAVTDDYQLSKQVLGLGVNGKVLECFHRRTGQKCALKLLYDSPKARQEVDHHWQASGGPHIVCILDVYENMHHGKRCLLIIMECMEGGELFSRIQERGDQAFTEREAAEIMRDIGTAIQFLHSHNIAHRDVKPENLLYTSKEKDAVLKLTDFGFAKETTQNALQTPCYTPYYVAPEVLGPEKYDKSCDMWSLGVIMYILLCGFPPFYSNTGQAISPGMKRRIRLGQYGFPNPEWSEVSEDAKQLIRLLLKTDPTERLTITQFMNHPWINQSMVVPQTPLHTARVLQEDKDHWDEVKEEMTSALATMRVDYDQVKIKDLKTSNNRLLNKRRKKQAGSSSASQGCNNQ
Sequence of IR-HIS (P06213 28-1382): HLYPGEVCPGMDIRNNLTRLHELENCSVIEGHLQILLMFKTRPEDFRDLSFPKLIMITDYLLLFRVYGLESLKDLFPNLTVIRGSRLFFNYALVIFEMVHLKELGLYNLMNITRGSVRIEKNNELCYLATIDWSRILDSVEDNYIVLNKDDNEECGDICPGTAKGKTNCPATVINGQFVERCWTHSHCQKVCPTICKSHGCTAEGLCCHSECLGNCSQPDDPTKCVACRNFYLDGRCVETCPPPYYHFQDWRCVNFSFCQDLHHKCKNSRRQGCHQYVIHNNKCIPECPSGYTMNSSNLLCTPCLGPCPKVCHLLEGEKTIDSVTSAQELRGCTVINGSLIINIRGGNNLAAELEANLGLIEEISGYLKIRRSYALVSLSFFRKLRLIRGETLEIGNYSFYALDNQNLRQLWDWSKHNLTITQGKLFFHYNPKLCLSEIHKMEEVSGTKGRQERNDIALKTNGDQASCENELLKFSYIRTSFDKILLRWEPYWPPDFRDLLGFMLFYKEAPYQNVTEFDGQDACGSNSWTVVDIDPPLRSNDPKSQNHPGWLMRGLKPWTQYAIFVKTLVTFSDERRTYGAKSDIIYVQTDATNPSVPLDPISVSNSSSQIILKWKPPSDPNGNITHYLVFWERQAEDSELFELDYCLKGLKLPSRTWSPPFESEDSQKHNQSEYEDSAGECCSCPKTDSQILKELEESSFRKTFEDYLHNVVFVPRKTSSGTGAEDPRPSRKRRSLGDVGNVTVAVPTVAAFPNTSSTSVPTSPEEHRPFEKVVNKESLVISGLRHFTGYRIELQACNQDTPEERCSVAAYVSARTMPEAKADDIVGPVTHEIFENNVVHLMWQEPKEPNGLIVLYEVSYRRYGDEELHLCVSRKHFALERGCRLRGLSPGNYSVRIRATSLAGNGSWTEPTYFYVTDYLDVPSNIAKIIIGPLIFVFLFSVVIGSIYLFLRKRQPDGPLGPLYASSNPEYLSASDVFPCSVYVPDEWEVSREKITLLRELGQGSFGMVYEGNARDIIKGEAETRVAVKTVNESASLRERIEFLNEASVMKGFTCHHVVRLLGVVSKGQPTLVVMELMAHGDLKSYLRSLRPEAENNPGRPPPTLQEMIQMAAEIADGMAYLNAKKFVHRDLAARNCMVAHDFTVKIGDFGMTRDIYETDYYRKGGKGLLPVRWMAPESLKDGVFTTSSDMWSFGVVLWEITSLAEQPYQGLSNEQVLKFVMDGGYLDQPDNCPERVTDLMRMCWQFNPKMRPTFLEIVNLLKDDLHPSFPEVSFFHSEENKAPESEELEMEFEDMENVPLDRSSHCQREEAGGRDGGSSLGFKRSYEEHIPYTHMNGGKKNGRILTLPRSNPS
Sequence of p38β MAPK (Q15759 whole entry): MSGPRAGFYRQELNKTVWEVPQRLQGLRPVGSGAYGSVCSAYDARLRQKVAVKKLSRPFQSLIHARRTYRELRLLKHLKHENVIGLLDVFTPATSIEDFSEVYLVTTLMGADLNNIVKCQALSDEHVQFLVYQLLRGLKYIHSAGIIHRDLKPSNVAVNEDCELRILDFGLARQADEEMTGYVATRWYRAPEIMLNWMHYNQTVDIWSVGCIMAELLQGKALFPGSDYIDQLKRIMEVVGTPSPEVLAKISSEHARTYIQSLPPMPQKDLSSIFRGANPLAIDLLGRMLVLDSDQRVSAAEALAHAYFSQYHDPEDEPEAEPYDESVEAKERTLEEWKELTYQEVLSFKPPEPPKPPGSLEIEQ

Compound `Nc1ccc2c(NC3CC3)nc(-c3ccccc3)nc2c1` [1b, N^4-Cyclopropyl-2-phenyl-4,7-quinazolinediamine] has a remaining activity at 10 µM (p38δ MAPK) of 81%, a remaining activity at 10 µM (CHK1) of 93% and a remaining activity at 10 µM (EPH-B3) of 112%. The remaining activity at 10 µM (SRPK1) was 83%, the remaining activity at 10 µM (DYRK3) was 97% and the remaining activity at 10 µM (PAK2) was 90%. The remaining activity at 10 µM (MST4) was 99%, the remaining activity at 10 µM (PKCz) was 96% and the remaining activity at 10 µM (PIM3) was 77%. It also gave a remaining activity at 10 µM (SGK1) of 92%, a remaining activity at 10 µM (IRAK4) of 97% and a remaining activity at 10 µM (IRR) of 104%. The remaining activity at 10 µM (MAPKAP-K3) was 84%, the remaining activity at 10 µM (ERK1) was 99% and the remaining activity at 10 µM (CHK2) was 78%. For the same compound, the remaining activity at 10 µM (MST2) was 87%, the remaining activity at 10 µM (PAK4) was 80% and the remaining activity at 10 µM (EF2K) was 102%. The remaining activity at 10 µM (CK2) was 85%, the remaining activity at 10 µM (IR-HIS) was 87% and the remaining activity at 10 µM (GCK) was 91%. It also gave a remaining activity at 10 µM (p38β MAPK) of 89%, a remaining activity at 10 µM (PIM1) of 82% and a remaining activity at 10 µM (DYRK2) of 88%. It also gave a remaining activity at 10 µM (MLK1) of 92%, a remaining activity at 10 µM (PLK1) of 87% and a remaining activity at 10 µM (CAMKKβ) of 95%.
